Test results reported in US20250223303A1, “TRICYCLIC BORONIC ACID DERIVATIVE, AND PREPARATION METHOD THEREFOR AND APPLICATION THEREOF” (priority 2021, published 2025).

How the values were obtained:
Type in all cases: biochemical
NDM-1 = molecular target: T1, NDM-1 (Klebsiella pneumoniae, UniProt C7C422); test: Enzyme activity test (FC5 fluorescent substrate), NDM-1; conditions: enzyme 6 pM, substrate FC5 15 μM, MBL buffer
T1 construct: purchased GenScript Biotech Co., Ltd
Protocol: (§1) Compound stock solution: the compound was prepared as a 50 mM DMSO stock solution. […] After aliquoting, the compound stock solutions were stored at −20° C.
(§2) Preparation and storage of antibiotic substrate stock solution: antibiotic fluorescent substrate FC5 was synthesized internally and prepared as a 2 mM stock solution, which was stored at −20° C. after aliquoting.
(§3) Storage of β-lactamases: each […] was synthesized by GenScript Biotech Co., Ltd., and stored at −80° C. after aliquoting to avoid repeated freezing and thawing.
(§4) Preparation of enzyme activity reaction buffer: SBL buffer: PBS pH 7.4, 0.01% (v/v) Triton X-100; MBL buffer: 50 Mm HEPES in PBS pH 7.2, 1 μM ZnSO4, 1 μg/mL BSA, 0.010% v/v Triton X-100
(§5) a) The compound to be tested and buffer were taken out and warmed to room temperature.
(§6) b) Each compound was diluted with DMSO and buffer to the initial experimental concentration (Table 2), and then the compound was diluted 3-fold for a total of 10 concentrations.
(§7) c) Diluted compounds were added to wells 1 to 20 of a 384-well black plate at 2 replicate wells per concentration, 5 μL per well. 5 µL of DMSO was added to wells 21 to 24.
(§8) d) Each enzyme was diluted to the experimental concentration (Table 2) in SBL and MBL buffers, and finally 35 μL/well was added, with a total of 22 wells. 35 μL buffer was added to wells 23 to 24. Wells 21 to well 22 served as the maximum test values (Max), while wells 23 to 24 were designated as the minimum test values (Min).
(§9) e) The 384-well plate was centrifuged quickly and incubated for 10 minutes at room temperature.
(§10) f) The antibiotic substrate FC5 was diluted in buffer to the experimental concentration of each enzyme (Table 2).
(§11) g) The incubated 384-well plate was taken out and FC-5 was added to wells […]. The 384-well plate was centrifuged rapidly and promptly transferred to a microplate reader for reading.
(§12) h) The fluorescence intensity was measured at 355 nm excitation light/460 nm emission light in the microplate reader, and the fluorescence intensity was measured every three minutes for a total of 10 measurements.
(§13) Initial velocity of enzyme reaction V: Subtract the background reading (Min wells) without enzyme from each fluorescence intensity reading, and then perform on a linear regression analysis on each compound concentration group. The slope is the initial velocity of enzyme reaction (V) at each compound concentration.
(§14) Dose-effect curve and IC50 calculation of compounds: The initial velocity of enzyme reaction under the effect of each concentration of compounds was subjected to nonlinear regression fitting. The IC50 (half-maximal inhibitory concentration) of each compound was calculated using the formula […] (Vi: the initial velocity of enzyme reaction at each compound concentration; V0: initial velocity of enzyme reaction without the compound (Max wells). The software used was Graphpad prism 8.

IMP-1 = molecular target: T2, IMP-1 (Serratia marcescens, UniProt P52699); test: Enzyme activity test (FC5 fluorescent substrate), IMP-1; conditions: enzyme 20 pM, substrate FC5 15 μM
T2 construct: purchased GenScript Biotech Co., Ltd
T2 sequence (P52699 19-246 limits assumed): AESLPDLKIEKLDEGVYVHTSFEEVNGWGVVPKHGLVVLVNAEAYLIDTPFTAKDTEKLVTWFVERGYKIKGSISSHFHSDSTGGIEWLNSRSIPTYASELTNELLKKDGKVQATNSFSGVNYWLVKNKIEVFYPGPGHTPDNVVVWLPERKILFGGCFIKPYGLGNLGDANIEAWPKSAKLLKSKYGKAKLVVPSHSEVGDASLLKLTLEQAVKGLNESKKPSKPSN
Protocol: as §1, §2, §3, §4, §5, §6, §7, §8, §9, §10, §11, §12, §13, §14

VIM-1 = molecular target: T3, VIM-1 (Pseudomonas aeruginosa, UniProt A0A0F7KYQ8); test: Enzyme activity test (FC5 fluorescent substrate), VIM-1; conditions: enzyme 70 pM, substrate FC5 10 μM
T3 construct: purchased GenScript Biotech Co., Ltd
Protocol: as §1, §2, §3, §4, §5, §6, §7, §8, §9, §10, §11, §12, §13, §14

VIM-2 = molecular target: T4, VIM-2 (Escherichia coli, UniProt Q5U7L7); test: Enzyme activity test (FC5 fluorescent substrate), VIM-2; conditions: enzyme 25 pM, substrate FC5 20 μM
T4 construct: purchased GenScript Biotech Co., Ltd
Protocol: as §1, §2, §3, §4, §5, §6, §7, §8, §9, §10, §11, §12, §13, §14

OXA-10 = molecular target: T5, OXA-10 (Pseudomonas aeruginosa, UniProt P14489); test: Enzyme activity test (FC5 fluorescent substrate), OXA-10; conditions: enzyme 350 pM, substrate FC5 50 μM
T5 construct: purchased GenScript Biotech Co., Ltd
T5 sequence (P14489 20-266): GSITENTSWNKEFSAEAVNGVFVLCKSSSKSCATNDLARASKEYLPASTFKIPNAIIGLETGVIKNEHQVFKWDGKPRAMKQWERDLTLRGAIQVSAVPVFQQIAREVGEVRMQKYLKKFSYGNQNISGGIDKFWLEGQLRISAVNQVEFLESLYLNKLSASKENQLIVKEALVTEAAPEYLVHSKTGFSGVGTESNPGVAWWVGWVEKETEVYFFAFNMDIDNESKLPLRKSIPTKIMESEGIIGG
Protocol: as §1, §2, §3, §4, §5, §6, §7, §8, §9, §10, §11, §12, §13, §14

[1] = tested on: four classes of β-lactamase, A, B, C, and D; test: Enzyme activity test, summary by β-lactamase class
Protocol: as §1, §2, §3, §4, §5, §6, §7
d) Each enzyme was diluted to the experimental concentration (Table 2) in SBL and MBL buffers, and finally 35 μL/well was added, with a total of 22 wells. 35 μL buffer was added to wells 23 to 24. […]
as §11, §12
(§15) Initial velocity of enzyme reaction V: Subtract the background reading (Min wells) without enzyme from each fluorescence intensity reading, and then perform on a linear regression analysis on each compound concentration group. […]

NDM-5 = NDM-5 (Klebsiella pneumoniae, UniProt C7C422, M154L/V88L); test: Enzyme activity test (FC5 fluorescent substrate), NDM-5
NDM-5, sequence (C7C422 29-270 V88L/M154L): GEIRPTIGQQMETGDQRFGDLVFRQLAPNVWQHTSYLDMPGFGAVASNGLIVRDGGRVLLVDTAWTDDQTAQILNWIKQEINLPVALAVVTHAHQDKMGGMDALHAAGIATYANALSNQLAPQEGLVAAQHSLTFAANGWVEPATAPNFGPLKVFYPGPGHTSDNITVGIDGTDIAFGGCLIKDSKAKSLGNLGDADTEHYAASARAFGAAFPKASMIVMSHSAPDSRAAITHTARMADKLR
Protocol: as §1, §2, §3, §4, §5, §6, §7, §8
e) The 384-well plate was centrifuged quickly and incubated for 10 minutes at room temperature. […]
as §11, §12, §15, §14

KPC-2 = molecular target: T6, KPC-2 (Klebsiella pneumoniae, UniProt Q9F663); test: Enzyme activity test (FC5 fluorescent substrate), KPC-2; conditions: enzyme 45 pM, substrate FC5 25 μM
T6 construct: purchased GenScript Biotech Co., Ltd
T6 sequence (Q9F663 25-293 limits assumed): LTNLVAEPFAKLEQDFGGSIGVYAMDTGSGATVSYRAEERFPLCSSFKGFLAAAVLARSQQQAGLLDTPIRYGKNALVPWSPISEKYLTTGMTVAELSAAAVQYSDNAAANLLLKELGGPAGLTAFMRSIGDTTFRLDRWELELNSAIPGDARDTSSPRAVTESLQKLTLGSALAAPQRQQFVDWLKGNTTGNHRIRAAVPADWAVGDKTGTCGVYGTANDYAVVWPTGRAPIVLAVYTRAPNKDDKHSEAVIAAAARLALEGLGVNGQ
Protocol: as §1, §2, §3, §4, §5, §6, §7, §8, §9, §10, §11, §12, §13, §14

CTX-M-15 = molecular target: T7, CTX-M-15 (Escherichia coli, UniProt Q9EXV5); test: Enzyme activity test (FC5 fluorescent substrate), CTX-M-15; conditions: enzyme 45 pM, substrate FC5 50 μM
T7 construct: purchased GenScript Biotech Co., Ltd
T7 sequence (Q9EXV5 entry or part of it): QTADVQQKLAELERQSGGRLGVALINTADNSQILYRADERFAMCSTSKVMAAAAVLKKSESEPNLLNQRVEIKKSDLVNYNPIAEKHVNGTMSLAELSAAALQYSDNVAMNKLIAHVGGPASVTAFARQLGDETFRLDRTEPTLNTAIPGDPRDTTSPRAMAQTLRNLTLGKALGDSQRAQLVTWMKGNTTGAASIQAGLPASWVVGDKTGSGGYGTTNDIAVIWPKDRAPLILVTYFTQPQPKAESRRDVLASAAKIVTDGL
Protocol: as §1, §2, §3, §4, §5, §6, §7, §8, §9, §10, §11, §12, §13, §14

Ampc = Ampc (UniProt P24735); test: Enzyme activity test (FC5 fluorescent substrate), AmpC; conditions: enzyme 25 pM, substrate FC5 15 μM
Protocol: as §1, §2, §3, §4, §5, §6, §7, §8, §9, §10, §11, §12, §13, §14

OXA-48 = molecular target: T8, OXA-48 (Klebsiella pneumoniae, UniProt Q6XEC0); test: Enzyme activity test (FC5 fluorescent substrate), OXA-48; conditions: enzyme 650 pM, substrate FC5 125 μM
T8 construct: purchased GenScript Biotech Co., Ltd
T8 sequence (Q6XEC0 23-265 limits assumed): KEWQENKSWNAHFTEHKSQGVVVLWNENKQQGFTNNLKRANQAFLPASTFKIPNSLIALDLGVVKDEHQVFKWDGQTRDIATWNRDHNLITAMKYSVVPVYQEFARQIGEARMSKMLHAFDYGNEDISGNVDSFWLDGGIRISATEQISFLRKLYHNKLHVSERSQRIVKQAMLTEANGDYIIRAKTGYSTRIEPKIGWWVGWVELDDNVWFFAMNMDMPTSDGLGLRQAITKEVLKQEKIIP
Protocol: as §1, §2, §3, §4, §5, §6, §7, §8, §9, §10, §11, §12, §13, §14

OXA-23 = molecular target: T9, OXA-23 (Acinetobacter baumannii, UniProt Q9L4P2); test: Enzyme activity test (FC5 fluorescent substrate), OXA-23; conditions: enzyme 650 pM, substrate FC5 50 μM
T9 construct: purchased GenScript Biotech Co., Ltd
T9 sequence (Q9L4P2 18-273): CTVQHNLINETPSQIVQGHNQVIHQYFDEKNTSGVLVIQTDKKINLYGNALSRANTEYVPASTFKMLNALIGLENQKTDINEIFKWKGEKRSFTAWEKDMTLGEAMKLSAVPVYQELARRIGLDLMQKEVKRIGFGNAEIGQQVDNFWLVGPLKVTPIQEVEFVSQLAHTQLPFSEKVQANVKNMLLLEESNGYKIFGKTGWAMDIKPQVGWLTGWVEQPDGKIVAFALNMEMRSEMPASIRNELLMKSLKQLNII
Protocol: as §1, §2, §3, §4, §5, §6, §7, §8, §9, §10, §11, §12, §13, §14

T1 sequence (C7C422 29-270 limits assumed): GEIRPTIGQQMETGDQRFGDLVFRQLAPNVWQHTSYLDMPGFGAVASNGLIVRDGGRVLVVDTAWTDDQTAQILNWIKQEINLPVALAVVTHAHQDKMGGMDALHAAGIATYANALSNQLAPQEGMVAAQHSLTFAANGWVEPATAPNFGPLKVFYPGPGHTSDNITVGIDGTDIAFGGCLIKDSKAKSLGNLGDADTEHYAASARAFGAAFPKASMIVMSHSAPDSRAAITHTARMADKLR

SMILES | IC50 (NDM-1) [nM] | IC50 (IMP-1) [nM] | IC50 (VIM-1) [nM] | IC50 (VIM-2) [nM] | IC50 (OXA-10) [nM] | activity against class A and class C serine β-lactamases (SBL) ([1]; class A and class C SBL) | inhibitory effect on class B metal-zinc ion β-lactamase (MBL) ([1]; class B MBL) | inhibitory activity against the class D serine β-lactamase ([1]; class D SBL) | IC50 (NDM-5) [nM] | IC50 (KPC-2) [nM] | IC50 (CTX-M-15) [nM] | IC50 (Ampc) [nM] | IC50 (OXA-48) [nM] | IC50 (OXA-23) [nM]
NC(=O)[C@@H]1CC[C@@H]2CN1C(=O)N2OS(=O)(=O)O [Avibactam, reference compound] | > 10000 | > 10000 | > 10000 | > 10000 | 5760 | good activity | no inhibitory effect | low inhibitory activity | – | – | – | – | – | –
CC(C)Sc1ccc2c(c1C(=O)O)OB(O)[C@@H]1C[C@H]21 [Compound 2] | 1.6 | < 5.1 | 0.1 | 0.1 | 6.8 | – | – | – | 2.9 | 3.3 | 3.2 | 42.7 | 0.4 | 0.6
O=C(O)c1c(S[C@H]2CCOC2)ccc2c1OB(O)[C@@H]1C[C@H]21 [Compound 4] | 1.9 | < 5.1 | < 0.05 | < 0.05 | 3.7 | – | – | – | 2.3 | 1.5 | 1.1 | 33.8 | 0.07 | 1.3
CN1CC(CCSc2ccc3c(c2C(=O)O)OB(O)[C@@H]2C[C@H]32)C1 [Compound 24-a] | 19.7 | < 5.1 | 7.7 | 6 | 39.4 | – | – | – | 14.8 | 3.4 | 3.1 | 63.8 | 1 | 1.4
